Reference: publication PMC4052451 (Journal of medicinal chemistry, 2013)
One block for each compound: values may come before it. *: point of attachment. Dnp = O=[N+]([O-])c1ccc(*)c([N+](=O)[O-])c1; Mca = COc1ccc2c(CC(=O)*)cc(=O)oc2c1

Experiments:
N-domain of sACE-1 = N-domain of sACE-1 (Homo sapiens, UniProt P12821); experiment: Reversible inhibition of the N-domain of sACE-1, fluorogenic substrate Abz-SDK; format: biochemical; details: Abz-SDK(Dnp)P-OH 7.5, 10, 15 µM; absence of co-reactants
C-domain of sACE-1 = C-domain of sACE-1 (Homo sapiens, UniProt P12821); experiment: Reversible inhibition of the C-domain of sACE-1, fluorogenic substrate Abz-LFK; format: biochemical; details: Abz-LFK(Dnp)-OH 7.5, 10, 15 µM; absence of co-reactants
[1] = ref [15],[24]; cited from earlier work
ACE = details: ref [38]; cited from earlier work
[2] = in SHR; ref [38]; cited from earlier work
sACE-1 = sACE-1 (Homo sapiens, UniProt P12821); details: generic substrate of previous study; ref [30]; cited from earlier work
Sequence of sACE-1 (P12821 30-1261): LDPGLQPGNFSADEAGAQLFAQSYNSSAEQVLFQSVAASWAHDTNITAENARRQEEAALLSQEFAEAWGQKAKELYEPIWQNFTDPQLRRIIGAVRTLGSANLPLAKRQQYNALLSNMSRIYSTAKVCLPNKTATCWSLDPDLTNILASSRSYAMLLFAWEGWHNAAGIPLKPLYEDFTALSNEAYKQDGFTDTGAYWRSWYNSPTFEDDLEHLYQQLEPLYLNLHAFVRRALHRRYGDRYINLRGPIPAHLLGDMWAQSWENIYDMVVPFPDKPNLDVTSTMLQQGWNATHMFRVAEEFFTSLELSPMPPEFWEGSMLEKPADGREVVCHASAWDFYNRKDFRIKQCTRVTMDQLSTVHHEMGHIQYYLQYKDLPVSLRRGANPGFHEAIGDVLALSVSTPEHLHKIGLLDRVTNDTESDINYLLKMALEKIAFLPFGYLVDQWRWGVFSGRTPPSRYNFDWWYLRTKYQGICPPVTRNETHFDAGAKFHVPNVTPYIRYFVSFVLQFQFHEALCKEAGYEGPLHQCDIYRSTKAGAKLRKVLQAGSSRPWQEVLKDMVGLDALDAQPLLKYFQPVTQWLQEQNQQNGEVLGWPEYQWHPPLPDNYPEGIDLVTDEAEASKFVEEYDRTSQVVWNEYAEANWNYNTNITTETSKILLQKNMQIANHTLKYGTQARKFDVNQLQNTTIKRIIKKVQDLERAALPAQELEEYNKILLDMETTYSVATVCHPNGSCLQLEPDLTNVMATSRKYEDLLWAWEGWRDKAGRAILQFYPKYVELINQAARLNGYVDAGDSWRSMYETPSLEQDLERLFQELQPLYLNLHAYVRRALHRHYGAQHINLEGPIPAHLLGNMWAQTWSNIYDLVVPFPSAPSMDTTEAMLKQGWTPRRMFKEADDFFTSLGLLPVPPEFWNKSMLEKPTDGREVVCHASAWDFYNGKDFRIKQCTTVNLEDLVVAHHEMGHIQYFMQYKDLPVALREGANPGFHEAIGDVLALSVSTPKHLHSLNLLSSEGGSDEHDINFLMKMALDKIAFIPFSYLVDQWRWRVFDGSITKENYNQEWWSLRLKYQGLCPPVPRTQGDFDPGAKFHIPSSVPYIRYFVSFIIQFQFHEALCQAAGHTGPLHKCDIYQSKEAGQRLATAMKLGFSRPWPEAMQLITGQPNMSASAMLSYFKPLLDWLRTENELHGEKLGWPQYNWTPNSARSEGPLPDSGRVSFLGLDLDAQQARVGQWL

Sequence of C-domain of sACE-1 (P12821 30-1261): as above
Sequence of N-domain of sACE-1 (P12821 30-1261): as above

- Inhibition mode by Dixon plot (N-domain) (N-domain of sACE-1): competitive inhibitors
- Inhibition mode by Dixon plot (C-domain) (C-domain of sACE-1): competitive inhibitors
Compound: NCCCC[C@H](N[C@@H](CCc1ccccc1)C(=O)O)C(=O)N1CCC[C@H]1C(=O)O [Lisinopril]

Compound: Ac-Asp-(L)Pheψ(PO2-CH2)(L)Ala-Ala-NH2 [RXP407]
- Effect on blood pressure regulation [1]: no effect on blood pressure regulation

Compound: Ile-Pro-Pro
- IC50 (ACE): 5 µM
- lowers blood pressure [2]: ≤ 30 mmHg

Compound: Mca-RPPGFSAFK(Dnp)-OH (SMILES COc1ccc2c(CC(=O)N[C@@H](CCCNC(=N)N)C(=O)N3CCC[C@H]3C(=O)N3CCC[C@H]3C(=O)NCC(=O)N[C@@H](Cc3ccccc3)C(=O)N[C@@H](CO)C(=O)N[C@@H](C)C(=O)N[C@@H](Cc3ccccc3)C(=O)N[C@@H](CCCCNc3ccc([N+](=O)[O-])cc3[N+](=O)[O-])C(=O)O)cc(=O)oc2c1)
- Km (sACE-1): 4.5 ± 0.6 µM
- kcat (sACE-1): 20.33 ± 0.833 s⁻¹
